Experimental data taken from patent US20240239801A1, “PYRIMIDO[5,4,D]PYRIMIDINE COMPOUNDS, COMPOSITIONS COMPRISING THEM AND USES THEREOF” (Université de Montréal, priority 2021, published 2024).

Columns and labels:
ARAF = biological target: T1, ARAF (Homo sapiens, UniProt P10398); experiment: ARAF kinase activity assay (AlphaLISA p-MEK detection); type: biochemical; details: Table A
T1 sequence (P10398 310-570 limits assumed): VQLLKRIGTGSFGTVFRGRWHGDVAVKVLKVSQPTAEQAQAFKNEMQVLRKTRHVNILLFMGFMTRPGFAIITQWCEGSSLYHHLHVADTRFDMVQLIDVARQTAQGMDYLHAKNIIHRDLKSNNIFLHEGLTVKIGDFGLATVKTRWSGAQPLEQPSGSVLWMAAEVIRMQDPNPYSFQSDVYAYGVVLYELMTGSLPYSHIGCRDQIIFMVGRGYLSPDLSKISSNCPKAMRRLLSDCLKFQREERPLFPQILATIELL
Description: Compound preparation: solid samples of each substances in 1dram vials were suspended in DMSO (Fisher Scientific) at a stock concentration of 20 mM. Stocks were kept at −20° C. and protected from light. If solubility of the compound at 20 mM appeared to be an issue, the initial concentration of the DMSO stock was changed to 10 mM or 5 mM.
In vitro enzymatic reactions were used for evaluating compounds intrinsic activity against BRAF, CRAF and ARAF. For BRAF and CRAF, 0.375 nM of purified GST-tagged kinases (cat #B4062-10UG and cat #R1656-10UG respectively from Millipore Sigma) were incubated with 75 nM of kinase-dead MEK1 substrate (cat #40075; BPS Bioscience) in the presence of 10 μM of Ultrapure ATP (cat #V9102; Promega; part V915A) with and without the test compound in a buffer containing 50 mM HEPES pH 7.5, 10 mM MgCl2, 1 mM EDTA, 0.01% Brij-35 and 2 mM DTT. Separate reactions were performed with the MEK1 substrate and ATP as a blank control. ARAF, kinase reactions were rigorously the same with the exception that kinase concentration was raised to 3.75 nM (cat #1768-0000-1; Reaction Biology).
For compound treatment, 5 μL/well of test substance solution are placed in a 384-well proxyplate (Perkin Elmer) and mixed with 2× concentrated kinase reactions. The dilution series is selected so that nine concentrations cover a range from 100 nM to 0.01 nM. […] The final concentration of DMSO in the assay is set at 0.05%.
ARAF kinase reactions were carried out for a total of 2 hours at 30° C. and then stopped by addition of EDTA at a final concentration of 40 mM. Reactions were then detected using the AlphaLISA® SureFire® Ultra™ p-MEK ½ (Ser218/222) (PerkinElmer) kit. Reactions were performed with 5 μL of kinase reaction according to the manufacturer's specifications in 384-well proxyplates (Perkin Elmer) followed by overnight incubation of the reactions at room temperature in a humidified chamber. After completion of the detection reactions, the signals were recorded on a Synergy Neo2 plate reader (Biotek) equipped with AlphaLISA® filters. The effect of each compound dilution on the pMEK signal generated by ARAF reactions was expressed in % inhibition and calculated as follows. An internal 100% inhibition control (average of luminescence in kinase reactions comprising kinase dead MEK1 substrate alone) was included in each plate to measure of pMEK background and was subtracted from each data point. The average of DMSO (vehicle) controls (set as 0% inhibition) was also established and used to calculate % inhibition:
IC50 values were obtained by plotting the kinase inhibition values and fitting the dose-activity curves using a log(agonist) versus response−variable slope (four parameters) function using either GraphPadPrism (V7.0) or Dotmatics Screening Ultra platform. Standards included in the ARAF kinase assay were Belvarafenib (MedChem Express cat #HY-109080; CAS #1446113-23-0), LXH254 (MedChem Express cat #HY-112089; CAS #1800398-38-2) and BGB283 (cat #HY-18957; CAS #1446090-79-4).

HCT116 pERK = experiment: Phospho-ERK inhibition, AlphaLISA SureFire Ultra p-ERK 1/2; type: cell-based, human; details: FIG. 1; RAS-mutant HCT116 cells
How it was run: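 IC50 derived by four-parameter fitting of % inhibition, with DMSO as 0% and 1 μM trametinib subtracted as background. Signal is AlphaLISA p-ERK1/2 (Thr202/Tyr204) in lysates of overnight-seeded cells (RPMI-1640, 5% FBS) treated 1 h with ten concentrations from 30 or 10 μM to 0.33 nM, 0.5% DMSO.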

[1] = tested on: RAS-mutant HCT-116 cells pERK/pMEK; experiment: Immunoblot analysis of pERK and pMEK; type: cell-based, human; details: FIG. 2, 1 h treatment
Description: For immunoblotting analysis, 500,000 HCT-116 cells were plated in 1 mL of complete RPMI-1640 growth medium in 24-well flat-bottomed transparent dishes (Costar). Cells were maintained overnight at 37° C. under 5% CO2 before treatment with compounds' dilution series for one hour. Cells were then washed once in PBS and lized in 250 μL of Igepal Lysis Buffer (50 mM Tris-HCl pH 7.5, 150 mM NaCl, 1% Igepal-CA630, 1 mM EDTA, 10% Glycerol) supplemented with Leupeptin, Aprotinin, PMSF, phosphatase inhibitor cocktail (Sigma) and Na3VO4 at 4° C. for 15 minutes with gentle rocking. Cell extracts were then cleared by centrifugation at 20,000 g at 4° C. for 10 minutes. Cleared lysates were then transferred on ice in fresh tubes and then boiled in sample loading buffer (100 mM Tris-HCl pH 6.8, 4% SDS, 0.2% bromophenol blue, 20% glycerol, 200 mM β-mercaptoethanol) for 5 minutes prior to fractionation by SDS-PAGE and transfer to nitrocellulose membranes (PALL). […]

Row | IC50 (ARAF) | YMIN of pERK IC50 dose response curve (HCT116 pERK) | SMILES | paradoxical induction of pERK or pMEK signaling (immunoblot) [1]
1 | > 20 nM |  | Cc1ccc(NC(=O)c2ccnc(C(F)(F)F)c2)cc1-c1cc(OCCO)nc(N2CCOCC2)c1 [LXH254, reference compound] | 
2 |  | ~−600% | CCCS(=O)(=O)Nc1ccc(F)c(C(=O)c2c[nH]c3ncc(Cl)cc23)c1F [PLX4720, reference compound] | induces the pathway
